Data: ChEMBL document CHEMBL4609984, “Design, synthesis and biological evaluation of imidazole and oxazole fragments as HIV-1 integrase-LEDGF/p75 disruptors and inhibitors of microbial pathogens” (Bioorg Med Chem, 2020)
In brackets after ≈: the same amount, converted by molar mass. Activity calls are given as the source filed them. The calls are words filed in the database; no cut-off is given here.

Legend:
MT4 = test: Cytotoxicity against human MT4 cells assessed as reduction in cell viability at 10 uM incubated for 5 days by MTS assay; type: cell-based; conditions: mt4, 120 h
[1] = biological target: Human immunodeficiency virus type 1 integrase (Human immunodeficiency virus 1) (UniProt Q7ZJM1); test: Inhibition of HIV-1 integrase assessed as inhibition of interaction of HIV-1 IN with LEDGF/p75 (unknown origin) at 10 uM preincubated with enzyme for 30 mins followed by further incubation with LEDGF/p75 for 1 hr by Alphascreen assay relative to control
Pseudomonas aeruginosa = test: Antibacterial activity against Pseudomonas aeruginosa ATCC 27858 assessed as reduction in bacterial growth incubated for 24 hrs by INT dye based assay; type: functional; conditions: ATCC 27858, 24 h
Staphylococcus aureus = test: Antibacterial activity against Staphylococcus aureus ATCC 25923 assessed as reduction in bacterial growth incubated for 24 hrs by INT dye based assay; type: functional; conditions: ATCC 25923, 24 h
Bacillus cereus = test: Antibacterial activity against Bacillus cereus ATCC 11779 assessed as reduction in bacterial growth incubated for 24 hrs by INT dye based assay; type: functional; conditions: ATCC 11779, 24 h
Escherichia coli = test: Antibacterial activity against Escherichia coli ATCC 8739 assessed as reduction in bacterial growth incubated for 24 hrs by INT dye based assay; type: functional; conditions: ATCC 8739, 24 h
Candida tropicalis = test: Antimicrobial activity against Candida tropicalis ATCC 750 assessed as reduction in fungal growth incubated for 48 hrs by INT dye based assay; type: functional
[2] = tested on: Human immunodeficiency virus 1; test: Antiviral activity against HIV-1 NL4-3 infected in human MT4 cells assessed as reduction in p24 gag protein incubated for 5 days by ELISA; type: functional, organism-based; conditions: Human immunodeficiency virus 1, NL4-3, MT4, 120 h
[3] = biological target: Human immunodeficiency virus type 1 integrase (Human immunodeficiency virus 1, UniProt Q7ZJM1); test: Inhibition of HIV-1 integrase assessed as inhibition of interaction of HIV-1 IN with LEDGF/p75 (unknown origin) preincubated with enzyme for 30 mins followed by further incubation with LEDGF/p75 for 1 hr by Alphascreen assay
[4] = tested on: Human immunodeficiency virus 1; test: Antiviral activity against HIV-1 NL4-3 infected in human MT4 cells assessed as reduction in p24 gag protein at 10 uM incubated for 5 days by ELISA; type: functional, organism-based
[5] = biological target: Human immunodeficiency virus type 1 integrase (Human immunodeficiency virus 1) (UniProt Q7ZJM1); test: Inhibition of HIV-1 integrase assessed as inhibition of interaction of HIV-1 IN with LEDGF/p75 (unknown origin) at 10 uM incubated for 1 hr by Alphascreen TruHits counter assay
[6] = Cytotoxicity against human MT4 cells assessed as reduction in cell viability incubated for 5 days by MTS assay; type: cell-based

Human immunodeficiency virus type 1 integrase, sequence (Q7ZJM1 whole entry): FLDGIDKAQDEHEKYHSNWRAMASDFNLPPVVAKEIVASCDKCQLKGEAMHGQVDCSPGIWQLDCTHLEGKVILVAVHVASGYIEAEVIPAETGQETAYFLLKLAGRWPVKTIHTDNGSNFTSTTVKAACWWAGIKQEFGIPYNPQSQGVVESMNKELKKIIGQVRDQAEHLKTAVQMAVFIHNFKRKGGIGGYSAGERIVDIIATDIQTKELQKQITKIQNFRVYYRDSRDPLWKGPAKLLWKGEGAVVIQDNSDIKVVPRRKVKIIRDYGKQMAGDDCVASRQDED
Human immunodeficiency virus type 1 integrase (Human immunodeficiency virus 1), sequence (Q7ZJM1 as listed by the source): as the sequence (Q7ZJM1 whole entry) above

Compound	Activity (MT4)	inhibition [1]	further results
Cc1ccc(S(=O)(=O)[C@H]2N=CO[C@@H]2c2ccc3c(c2)OCO3)cc1 (racemic)	Non-Toxic	33%	
Fc1ccc(-c2cncn2C2CC2)cc1	Non-Toxic	31%	
Cc1ccc(S(=O)(=O)[C@H]2N=CO[C@@H]2c2ccccc2)cc1 (racemic)	Non-Toxic	34%	
Fc1ccc(-c2cncn2C2CCCCC2)cc1	Non-Toxic	45%	
CCCCn1cncc1-c1ccccc1[N+](=O)[O-]	Non-Toxic	30%	
CCCCn1cncc1-c1ccc2c(c1)OCCO2	Non-Toxic	21%	
c1ccc(Cn2cncc2-c2ccc3c(c2)OCO3)cc1	Non-Toxic	43%	
c1ccc(-c2cnco2)cc1	Non-Toxic	31%	
c1cc2c(cc1-c1cncn1C1CCCCC1)OCO2	Non-Toxic	40%	
COc1cccc(-c2cncn2C2CC2)c1	Non-Toxic	40%	
O=[N+]([O-])c1ccc(-c2cnco2)cc1	Non-Toxic	33%	
COc1ccc(-c2cncn2Cc2ccccc2)c(OC)c1	Non-Toxic	17%	MIC (Pseudomonas aeruginosa): > 250 µg/mL; MIC (Staphylococcus aureus): 62.5 µg/mL (≈ 212 µM); MIC (Bacillus cereus): 125 µg/mL (≈ 425 µM); MIC (Escherichia coli): > 250 µg/mL; MIC (Candida tropicalis; ATCC 750, 48 h): 250 µg/mL (≈ 849 µM)
Cc1ccc(S(=O)(=O)[C@H]2N=CO[C@@H]2c2ccccc2[N+](=O)[O-])cc1 (racemic)	Non-Toxic	38%	
COc1ccc(-c2cncn2C2CC2)c(OC)c1	Non-Toxic	28%	
O=[N+]([O-])c1ccc(-c2cncn2C2CCCCC2)cc1	Non-Toxic		
CCCCn1cncc1-c1ccc([N+](=O)[O-])cc1	Non-Toxic	27%	
Fc1ccc(-c2cncn2Cc2ccccc2)cc1	Non-Toxic	25%	MIC (Pseudomonas aeruginosa): > 250 µg/mL; MIC (Staphylococcus aureus): 62.5 µg/mL (≈ 248 µM); MIC (Bacillus cereus): 125 µg/mL (≈ 495 µM); MIC (Escherichia coli): > 250 µg/mL; MIC (Candida tropicalis; ATCC 750, 48 h): > 250 µg/mL
CCCCn1cncc1-c1ccc(C(C)(C)C)cc1	Non-Toxic	56%	MIC (Pseudomonas aeruginosa): 250 µg/mL (≈ 975 µM); MIC (Staphylococcus aureus): 15.6 µg/mL (≈ 60.8 µM); EC50 [2]: > 10 µM; MIC (Bacillus cereus): 31.3 µg/mL (≈ 122 µM); IC50 [3]: 22.4 µM; Activity [4]: inactive; inhibition [5]: Active; MIC (Escherichia coli): 250 µg/mL (≈ 975 µM); MIC (Candida tropicalis; ATCC 750, 48 h): 31.3 µg/mL (≈ 122 µM); CC50 at 120 h [6]: 23.9 µM
CCCCn1cncc1-c1ccc(F)cc1	Non-Toxic	30%	
COc1ccc(-c2cnco2)c(OC)c1	Non-Toxic	42%	
CCCCn1cncc1-c1cccc(OC)c1	Non-Toxic	51%	MIC (Pseudomonas aeruginosa): > 250 µg/mL; MIC (Staphylococcus aureus): > 250 µg/mL; EC50 [2]: > 10 µM; MIC (Bacillus cereus): 62.5 µg/mL (≈ 271 µM); IC50 [3]: 30.5 µM; Activity [4]: inactive; inhibition [5]: Active; MIC (Escherichia coli): 125 µg/mL (≈ 543 µM); MIC (Candida tropicalis; ATCC 750, 48 h): 62.5 µg/mL (≈ 271 µM); CC50 at 120 h [6]: 29.6 µM

Compound	Activity (MT4)	inhibition [1]	further results
CCCCn1cncc1-c1ccc2c(c1)OCO2	Non-Toxic	35%	MIC (Pseudomonas aeruginosa): > 250 µg/mL; MIC (Bacillus cereus): 31.3 µg/mL (≈ 128 µM); MIC (Escherichia coli): > 250 µg/mL
Brc1ccc(-n2cncc2-c2ccc3c(c2)OCO3)cc1	Non-Toxic	48%	
CCCCn1cncc1-c1ccccc1Cl	Non-Toxic	37%	
NYSTATIN			MIC (Candida tropicalis): 1.25 µg/mL
Clc1ccccc1-c1cnco1	Non-Toxic	33%	
Clc1ccccc1-c1cncn1C1CCCCC1	Non-Toxic	31%	
CC(C)(C)c1ccc(-c2cncn2C2CCCCC2)cc1	Non-Toxic	62%	MIC (Pseudomonas aeruginosa): > 250 µg/mL; MIC (Staphylococcus aureus): 62.5 µg/mL (≈ 221 µM); EC50 [2]: > 10 µM; MIC (Bacillus cereus): 15.6 µg/mL (≈ 55.2 µM); IC50 [3]: 14.6 µM; Activity [4]: inactive; inhibition [5]: Active; MIC (Escherichia coli): > 250 µg/mL; MIC (Candida tropicalis; ATCC 750, 48 h): 31.3 µg/mL (≈ 111 µM); CC50 at 120 h [6]: 21.8 µM
CC(C)(C)c1ccc(-c2cnco2)cc1	Non-Toxic	35%	
COc1cccc(-c2cnco2)c1	Non-Toxic	33%	
COc1ccc(-c2cncn2C2CCCCC2)c(OC)c1	Non-Toxic	40%	MIC (Pseudomonas aeruginosa): > 250 µg/mL; MIC (Staphylococcus aureus): 62.5 µg/mL (≈ 218 µM); MIC (Bacillus cereus): 250 µg/mL (≈ 873 µM); MIC (Escherichia coli): > 250 µg/mL; MIC (Candida tropicalis; ATCC 750, 48 h): 125 µg/mL (≈ 436 µM)
O=C(O)c1cn(C2CC2)c2cc(N3CCNCC3)c(F)cc2c1=O [CIPROFLOXACIN]			MIC (Pseudomonas aeruginosa): 0.313 µg/mL (≈ 0.945 µM); MIC (Staphylococcus aureus): 0.156 µg/mL (≈ 0.471 µM); MIC (Bacillus cereus): 0.156 µg/mL (≈ 0.471 µM); MIC (Escherichia coli): 0.313 µg/mL (≈ 0.945 µM)
CCCCn1cncc1-c1ccc(OC)cc1OC	Non-Toxic	26%	
O=[N+]([O-])c1ccccc1-c1cnco1	Non-Toxic	30%	
COc1cccc(-c2cncn2C2CCCCC2)c1	Non-Toxic	55%	MIC (Pseudomonas aeruginosa): > 250 µg/mL; MIC (Staphylococcus aureus): 62.5 µg/mL (≈ 244 µM); EC50 [2]: > 10 µM; MIC (Bacillus cereus): 62.5 µg/mL (≈ 244 µM); IC50 [3]: 21.9 µM; Activity [4]: inactive; inhibition [5]: Active; MIC (Escherichia coli): > 250 µg/mL; MIC (Candida tropicalis; ATCC 750, 48 h): 62.5 µg/mL (≈ 244 µM); CC50 at 120 h [6]: 27.7 µM
COc1ccc(-c2cncn2-c2ccc(Br)cc2)c(OC)c1	Non-Toxic	52%	EC50 [2]: > 10 µM; IC50 [3]: 7 µM; Activity [4]: inactive; inhibition [5]: Active; CC50 at 120 h [6]: 55.5 µM
c1ncc(-c2ccc3c(c2)OCO3)o1	Non-Toxic	35%	
Fc1ccc(-c2cncn2-c2ccc(Br)cc2)cc1	Non-Toxic	52%	EC50 [2]: > 10 µM; IC50 [3]: 25.1 µM; Activity [4]: inactive; inhibition [5]: Active; CC50 at 120 h [6]: 48 µM
O=[N+]([O-])c1ccccc1-c1cncn1C1CCCCC1	Non-Toxic		
Fc1ccc(-c2cnco2)cc1	Non-Toxic	23%	
COc1cccc(-c2cncn2Cc2ccccc2)c1	Non-Toxic	21%	
